According to patent US20070232694A1, “SKIN CLEANSER” (priority 2006, published 2007):

Key:
mycobacteria marinum = test: Finger infection, patient case; assay type: in vivo, human; conditions: after eleven days of antibiotics
Experimental: Action against Mycobacteria: A person with four month long history of an infection on the posterior aspect of their right ring finger was treated. The infected areas were culture positive for mycobacteria marinum, with symptoms of infection resulting in a 4 cm long patchy zone of erythema, induration, and oozing from the wound. After failing two full courses of oral antibiotics, over the previous four months, the patient was given a third round of antibiotics, this time Clarythromycin, after their finger's condition had worsened.

[1] = system: ATCC 29213 (MSSA) and ATCC 43330 (MRSA); test: Petri dish (Mueller-Hinton agar) drop test, zones of inhibition vs controls; assay type: cell-based, Staphylococcus aureus; conditions: for order of anti-bacterial effectiveness: at a given concentration
Experimental: Testing was conducted at a pathology laboratory certified for microbiology testing by a physician and a microbiologist. A double blind, randomized controlled experiment was conducted to evaluate the surfactant compounds against bacteria in Petri dishes.
Bacterial strain: Two well characterized strains of methicillin-sensitive Staphylococcus aureus (MSSA) and methicillin-resistant Staphylococcus aureus (MRSA) were used. Specifically, experiments used ATCC 29213 (MSSA) and ATCC 43330 (MRSA), both beta-lactamase positive strains, which represent greater than 90% of the respective strains in the American population.
Petri dish preparation: A sterile cotton swab (American Scientific Products, McGraw Park, Ill.) was dipped into the cultures and used to swab the entire surface of 150×15 mm Petri dishes containing 75 ml of standard Mueller-Hinton agar. Two Petri dishes were inoculated with ATCC 29213 (MSSA and two Petri dishes with ATCC 43330 (MRSA). One Petri dish of each group (MSSA and MRSA) was set aside as the controls. The other two Petri dishes (MSSA and MRSA) were divided up in quadrants, and each quadrant was labeled B, C, D or E.
Cleanser compositions were prepared as follows: A surfactant solution containing about 10% by volume of sodium dodecylbenzenesulfonate was prepared. An aqueous stock solution containing 0.5% by volume sodium hypochlorite and 0.5% by volume abrasive (calcium carbonate and sodium carbonate) was prepared. The surfactant solution and stock solution were mixed in various ratios to produce four skin cleanser solutions having four different surfactant concentrations of 0.5%, 1%, 2% and 8%, by volume. The amount of sodium hypochlorite, calcium carbonate and sodium carbonate in each of the four skin cleanser solutions was less than 1% concentration by volume.
Cleanser Testing: Four samples of the cleanser with the four different concentrations of the surfactant (0.5%, 1%, 2% and 8%) were placed into four separate, unmarked bottles. Each bottle was randomly labeled (B, C, D, or E), and the microbiologist conducting the study was unaware of any difference between the solutions.
Application: Holding each bottle vertically, the microbiologist added a single drop from each bottle (B, C, D, or E) to the corresponding quadrant of the labeled Petri dish. All four Petri dishes were placed in an incubator overnight at 37 degrees Celsius, and examined 20 hours later. Petri dishes were compared to the corresponding controls, and zones of inhibition were characterized by the largest point of diameter of the circle or oval.
Four cleanser compositions were prepared and tested in the manner described in Example 1, except that each cleanser contained a different anionic surfactant. […]

Enterococcus = test: Infected decubitus ulcer, patient case; assay type: in vivo, human; conditions: on antibiotics, five days after admission
Source text: Action against Gram-positives such as Enterococcus: A person with long history of diabetes was admitted from their hospice care home to an acute care facility hospital secondary to an infected decubitus ulcer (bedsore). This patient's sacral ulcer tested positive from culture swab for Enterococcus, a common Gram-positive bacterium for infecting bedsores. Immediately upon admission, the patient was placed on antibiotics (ciprofloxacin). […] On day five, the treating physician directly cultured the wound again with two cotton swabs. Cotton swab #1, the control, was placed directly in the sealed container based on hospital protocol. Cotton swab #2 was placed into the sealed container, but one single vertical drop of a cleanser solution (prepared as described in Example 1). Both swabs were sent to the lab and a count of colony-forming units (CFUs) ordered.

Compound	order of anti-bacterial effectiveness [1]	also measured
CC[C@H]1OC(=O)[C@H](C)[C@@H](O[C@H]2C[C@@](C)(OC)[C@@H](O)[C@H](C)O2)[C@H](C)[C@@H](O[C@@H]2O[C@H](C)C[C@H](N(C)C)[C@H]2O)[C@](C)(OC)C[C@@H](C)C(=O)[C@H](C)[C@@H](O)[C@]1(C)O [Clarythromycin]	–	symptoms of infection (mycobacteria marinum): no change in symptoms
CCCCCCCCCCCC(=O)N(C)CC(=O)[O-].[Na+] [N-lauroylsarcosine sodium salt]	sodium dodecylbenzenesulfonate >N-lauroylsarcosine sodium salt >sodium cholate, sodium deoxycholate	–
OCl [Sodium hypochlorite]	–	effect on anti-bacterial action of sodium dodecylbenzenesulfonate ([1]; synergy of action): potentiated
O=C(O)c1cn(C2CC2)c2cc(N3CCNCC3)c(F)cc2c1=O [ciprofloxacin]	–	course of ulcer (Enterococcus): signs of worsening
C[C@H](CCC(=O)[O-])[C@H]1CC[C@H]2[C@@H]3[C@H](O)C[C@@H]4C[C@H](O)CC[C@]4(C)[C@H]3C[C@H](O)[C@]12C.[Na+] [sodium cholate]	sodium dodecylbenzenesulfonate >N-lauroylsarcosine sodium salt >sodium cholate, sodium deoxycholate	–
sodium deoxycholate	sodium dodecylbenzenesulfonate >N-lauroylsarcosine sodium salt >sodium cholate, sodium deoxycholate	–
